From patent US20260365633A1, “Novel PEM Structures for SBX” (Roche Sequencing Solutions, Inc., priority 2023, published 2026) come the findings set out here.

This experiment concerns the target T1, C4760 DNA polymerase (a variant of DPO4) (Saccharolobus solfataricus, UniProt Q97W02, A155G/A42V/D156R/D292Y/D294N/E291S/E324K/E325K/E327K/E63R/E79L/G187P/G299W/I153V/I189F/I248T/I295S/K152A/K317Q/K321Q/K56Y/K78D/L293W/M76W/N188Y/P184Q/Q82W/Q83G/R300S/S297Y/S86E/T290K/T301W/V289W/V296Q).
T1 construct: Eco or Kod SSB in reaction as additive
T1 sequence (Q97W02 1-340 A155G/A42V/D156R/D292Y/D294N/E291S/E324K/E325K/E327K/E63R/E79L/G187P/G299W/I153V/I189F/I248T/I295S/K152A/K317Q/K321Q/K56Y/K78D/L293W/M76W/N188Y/P184Q/Q82W/Q83G/R300S/S297Y/S86E/T290K/T301W/V289W/V296Q): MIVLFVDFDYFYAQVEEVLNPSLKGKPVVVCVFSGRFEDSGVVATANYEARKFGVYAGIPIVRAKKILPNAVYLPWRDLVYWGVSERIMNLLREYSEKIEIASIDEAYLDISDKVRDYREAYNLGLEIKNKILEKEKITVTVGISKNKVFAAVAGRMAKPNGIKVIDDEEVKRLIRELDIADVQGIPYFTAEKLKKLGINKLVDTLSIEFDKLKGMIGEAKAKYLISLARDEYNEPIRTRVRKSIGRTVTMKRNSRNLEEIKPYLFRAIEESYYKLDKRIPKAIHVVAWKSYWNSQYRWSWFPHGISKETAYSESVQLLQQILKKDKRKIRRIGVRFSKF
Briefly: Primer extension on 411mer amplicon template with C4760 polymerase, gel. The class given is biochemical, Sulfolobus solfataricus. The protocol: PEM activity of compound 15 was tested in primer extension assays using a 411mer amplicon template. Primer extension reactions included the following reagents: 50 Mm TrisCl, 200 Mm NH40ac, 20% PEG8K, 5% NMS, 3 nmol PP-60.20, 2 Mm MnCl2, 2 μg Kod single-strand binding protein (SSB), 1 M urea, 250 pmol each XNTP, 1 pmol template, 1 pmol [COMPOUND LEFT OUT] primer, 1.2 μg purified recombinant C4760 DNA polymerase (a variant of DPO4, see SEQ ID NO: 2), and 2 (lane 2) or 3 (lane 3) Mm PEM. 10 μL primer extension reactions were run for 20 minutes at 37 °C and reaction products were analyzed by gel electrophoresis. A representative gel showing primer extension products is presented in FIG. 12 (the position of a 277mer is indicated by the arrow). […] Remarkably, the polymerase is completely dependent upon the addition of PEM to the reaction in order to be capable of synthesizing these lengthy Xpandomer products. Even longer extension products may be obtained by optimizing various reaction parameters, e.g., extension time and/or concentrations of various additives.
PEM activity of compound 19, was tested in primer extension assays using the 411mer amplicon template. […] 10 μL primer extension reactions were run for 30 minutes at 37 °C and reaction products were analyzed by gel electrophoresis. […]

Turning to `NC(=O)c1cc(-c2cn(-c3ccc(C(=O)O)c(O)c3)nn2)nc(-c2cn(-c3ccc(C(=O)O)c(O)c3)nn2)c1` [Compound 19, 4,4′-((4-carbamoylpyridine-2,6-diyl)bis(1H-1,2,3-triazole-4,1-diyl))bis(2-hydroxybenzoic acid)], where the note is “0.5, 1, or 1.5 Mm PEM, 30 minutes at 37 °C, FIG. 14”, the “XNTP polymerization relative to compound 14” value is “less efficient than that of compound 14”.
As to `CCOC(=O)c1cc(-c2cn(-c3ccc(O)c(C(=O)O)c3)nn2)nc(-c2cn(-c3ccc(O)c(C(=O)O)c3)nn2)c1` [Compound 15, 5,5′-((4-(ethoxycarbonyl)pyridine-2,6-diyl)bis(1H-1,2,3-triazole-4,1-diyl))bis(2-hydroxybenzoic acid)], the “XNTP polymerization relative to compound 14” value (2 or 3 Mm PEM, 20 minutes at 37 °C, FIG. 12) is on record as “comparable to that of compound 14”.
